Reference: ChEMBL document CHEMBL4725300, “Structure optimization of positive allosteric modulators of GABA receptors led to the unexpected discovery of antagonists/potential negative allosteric modulators” (Bioorg Med Chem Lett, 2020)

Key:
Assay type in all cases: cell membranes
Rattus norvegicus [1] = species on record: Rattus norvegicus; test: Negative allosteric modulation of GABAB receptor in Sprague-Dawley rat brain cortex membrane assessed as decrease in [35S]GTPgammaS binding at 2.5 uM incubated for 30 mins relative to control; design: scale not given: the % may be the effect or the level left; conditions: Cerebral cortex, filed as negative allosteric modulator
Rattus norvegicus [2] = species on record: Rattus norvegicus; test: Negative allosteric modulation of GABAB receptor in Sprague-Dawley rat brain cortex membrane assessed as decrease in [35S]GTPgammaS binding at 25 uM incubated for 30 mins relative to control; design: scale not given: the % may be the effect or the level left; conditions: Cerebral cortex, filed as negative allosteric modulator
Rattus norvegicus [3] = species on record: Rattus norvegicus; test: Antagonist activity at GABAB receptor in Sprague-Dawley rat brain cortex membrane assessed as decrease in 10 uM GABA-stimulated [35S]GTPgammaS binding at 25 uM incubated for 30 mins relative to GABA; design: scale not given: the % may be the effect or the level left; conditions: Cerebral cortex, filed as antagonist
Rattus norvegicus [4] = species on record: Rattus norvegicus; test: Antagonist activity at GABAB receptor in Sprague-Dawley rat brain cortex membrane assessed as decrease in 10 uM GABA-stimulated [35S]GTPgammaS binding at 2.5 uM incubated for 30 mins relative to GABA; design: scale not given: the % may be the effect or the level left; conditions: Cerebral cortex, filed as antagonist
Rattus norvegicus [5] = species on record: Rattus norvegicus; test: Negative allosteric modulation of GABAB receptor in Sprague-Dawley rat brain cortex membrane assessed as decrease in [35S]GTPgammaS binding for 30 mins; conditions: Cerebral cortex, filed as negative allosteric modulator
Rattus norvegicus [6] = species on record: Rattus norvegicus; test: Antagonist activity at GABAB receptor in Sprague-Dawley rat brain cortex membrane assessed as decrease in 10 uM GABA-stimulated [35S]GTPgammaS binding incubated for 30 mins; conditions: Cerebral cortex, filed as antagonist
Rattus norvegicus [7] = species on record: Rattus norvegicus; test: Agonist activity at GABAB receptor in Sprague-Dawley rat brain cortex membrane assessed as decrease in 10 uM GABA-stimulated [35S]GTPgammaS binding at 25 uM incubated for 30 mins; design: scale not given: the % may be the effect or the level left; conditions: Cerebral cortex, filed as agonist
Rattus norvegicus [8] = species on record: Rattus norvegicus; test: Agonist activity at GABAB receptor in Sprague-Dawley rat brain cortex membrane assessed as decrease in 10 uM GABA-stimulated [35S]GTPgammaS binding at 2.5 uM incubated for 30 mins; design: scale not given: the % may be the effect or the level left; conditions: Cerebral cortex, filed as agonist

SMILES | Activity (Rattus norvegicus [1]) | Activity (Rattus norvegicus [2]) | Activity (Rattus norvegicus [3]) | Activity (Rattus norvegicus [4]) | Activity (Rattus norvegicus [5]) | Activity (Rattus norvegicus [6]) | Activity (Rattus norvegicus [7]) | Activity (Rattus norvegicus [8])
O=c1cc(O)nc(-c2ccccc2)n1Cc1ccccc1 | 2.4% | 14% | 12.4% | 0.9% | – | – | – | –
Cn1c(Sc2ccc(Cl)cc2)nc(-c2ccc(C(C)(C)C)cc2)cc1=O | 4% | 9.7% | 3.1% | 8.2% | Dose-dependent effect | – | – | –
CCOC(=O)c1cnc(SC)nc1NC1CCCC1 | 25% | 29.3% | 5.7% | 10.3% | Dose-dependent effect | – | – | –
O=c1cc(-c2ccccc2)nc(Sc2ccc(Cl)cc2)[nH]1 | 8.7% | 14.7% | 7.4% | 4.9% | Dose-dependent effect | – | – | –
Cc1c(O)c2cc(C(C)(C)C)ccc2n(CC(C)C)c1=O | 13.5% | 32.5% | 23.6% | 8.4% | Dose-dependent effect | Dose-dependent effect | – | –
CC(C)c1ccc2c(c1)c(O)c(C(C)C)c(=O)n2CC(C)(C)C | 3.2% | 13.8% | – | 2% | Dose-dependent effect | – | 2.6% | –
Cn1c(Sc2ccccc2)nc(-c2ccccc2)cc1=O | 4.7% | 9.7% | 4.7% | 1.6% | Dose-dependent effect | – | – | –
O=c1cc(-c2ccccc2)nc(Sc2ccccc2)[nH]1 | 3.3% | 7.3% | 6.1% | 4.7% | Dose-dependent effect | – | – | –
CSc1ncc(-c2nnc(C)o2)c(NC2CCCC2)n1 | 25.3% | 37.7% | 19% | 17.1% | Dose-dependent effect | – | – | –
Cc1c(O)nc(-c2ccccc2)n(Cc2ccccc2)c1=O | 3.3% | 8.3% | 6.2% | 5.7% | – | – | – | –
CCCn1c(=O)c(C)c(O)c2cc(OC)ccc21 | 5% | 10.5% | 7.4% | 4.3% | Dose-dependent effect | – | – | –
CC(C)Cn1c(=O)c(C(C)C)c(O)c2cc(C(C)C)ccc21 | 8.7% | 41.5% | 41.5% | 13.5% | Dose-dependent effect | Dose-dependent effect | – | –
Cn1c(Sc2ccc(Cl)cc2)nc(-c2ccccc2)cc1=O | 12.2% | 34.7% | 34.1% | 10.9% | Dose-dependent effect | Dose-dependent effect | – | –
CCOC(=O)c1cnc(-n2nc(C)cc2C)nc1NC1CCCC1 | 18.3% | 44.7% | 40.8% | 14.4% | Dose-dependent effect | Dose-dependent effect | – | –
CSc1ncc(-c2nc(C)no2)c(NC2CCCC2)n1 | 19% | 33.3% | 19% | 10.3% | Dose-dependent effect | Dose-dependent effect | – | –
CC(C)c1c(O)nc(-c2ccccc2)n(Cc2ccccc2)c1=O | 2.3% | 13% | 8% | 5.2% | – | – | – | –
CC(C)c1c(O)c2cc(C(C)(C)C)ccc2n(CC(C)(C)C)c1=O | 2% | 22.7% | 6.3% | – | Dose-dependent effect | – | – | 1.7%
CC(C)Cn1c(=O)c(C(C)C)c(O)c2cc(C(C)(C)C)ccc21 | 23% | 50.7% | 36.2% | 15.3% | Dose-dependent effect | Dose-dependent effect | – | –
CCCCCn1c(=O)c(C(C)C)c(O)c2cc(C(C)C)ccc21 | 9% | 37.7% | 24.4% | 7% | Dose-dependent effect | Dose-dependent effect | – | –
